Laboratory results as given in patent US20250176548A1, “POLYMERIC IMIDAZOLIUM COMPOUNDS FOR ENHANCING THE ACTIVITY OF ANTIMICROBIAL AGENTS” (BASF SE, priority 2022, published 2025).

Tests used:
[1] = tested on: Salmonella enterica subsp. enterica (S enterica ATCC 10708); assay: Bactericidal activity of cleaner/disinfecting formulations, DIN EN 1276-2010, dirty conditions; format: cell-based; details: BAC 40 ppm in cleaner diluted 1:250; 0.3% bovine albumin, 35° C., 5 min contact time
Experimental: (§1) For biological activity testing, the following microorganisms were used: • Escherichia coli(E. coli DSM 682) • Salmonella enterica subsp. enterica (S enterica ATCC 10708)
(§2) The imidazolium polymer of example 1 (imidazolium polymer 1) and benzalkonium chloride (BAC) were formulated into various dilutable concentrated hard-surface cleaners. The finished formulations were pre-dissolved 1:200 in standardized hard water (DIN EN 1276-2010) and then diluted to 80% by adding 1 ml of the inoculate and 1 ml of bovine albumin solution to 8 ml of the pre-dissolved cleaner, so that in-test a dilution of 1:250 was obtained. The amounts relate to active substance.
(§3) Antimicrobial testing of the above formulations in 1:250 dilution was done according to European Standard (DIN EN 1276-2010) under dirty conditions, i.e. additional soiling of 0.3% bovine albumin at 35° C. and 5 min contact time. Neutralization was done using the Saponin-containing neutralizer as described in DIN EN 1276 (30 g/l Polysorbate 80+30 g/l Saponin+3 g/l Lecithin). Results are documented in the table below as logarithmic reduction (Ig R) in comparison to the number of microorganisms used for the test.

[2] = tested on: Escherichia coli (E. coli DSM 682); assay: as above; format: cell-based; details: 0.3% bovine albumin, 35° C., 5 min contact time
Experimental: as §1, §2, §3
as §2, with “didecyldimethylammonium” for “benzalkonium”, “(DDAC)” for “(BAC)”
as §3, with “80+30 g/I” for “80+30 g/l”, “Saponin+3 g/I” for “Saponin+3 g/l”

SMILES | S. enterica logarithmic reduction (lg R) [1] [lg R] | E. coli logarithmic reduction (lg R) ([2]; BAC 20 ppm in cleaner diluted 1:250) | E. coli logarithmic reduction (lg R) ([2]; BAC 40 ppm in cleaner diluted 1:250) | E. coli logarithmic reduction (lg R) ([2]; DDAC 10 ppm in cleaner diluted 1:250) | E. coli logarithmic reduction (lg R) ([2]; DDAC 20 ppm in cleaner diluted 1:250)
CCCCCCCCCCCC[N+](C)(C)Cc1ccccc1.[Cl-] [BAC, lauryl dimethyl benzyl ammonium chloride] | 0.5 | 0.5 | 2.7 |  | 
CCCCCCCCCC[N+](C)(C)CCCCCCCCCC.[Cl-] [DDAC, didecyldimethylammonium chloride] |  |  |  | 0.2 | 1.2
